# Test results: PubChem BioAssay (NCI)
#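 Cells were grown in 96-well plates and exposed to each compound for 48 hours at five concentrations; endpoints were interpolated linearly between bracketing concentrations, or set to the highest concentration if not reached. Here, GI50 denotes the concentration required for 50% inhibition of growth. TGI is the concentration that stops growth completely.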
# Legend:
# Assay in all cases: inhibition of tumour cell growth, NCI panel, 48 h
# SR leukemia = tested on: SR leukemia
# OVCAR-5 ovarian = tested on: OVCAR-5 ovarian
# MDA-MB-435 = tested on: MDA-MB-435
# UACC-257 melanoma = tested on: UACC-257 melanoma
# CAKI-1 renal = tested on: CAKI-1 renal
# M14 melanoma = tested on: M14 melanoma
# SF-295 CNS = tested on: SF-295 CNS
# HS 578T breast = tested on: HS 578T breast
# SNB-75 CNS = tested on: SNB-75 CNS
# MDA-MB-231 breast = tested on: MDA-MB-231 breast
# SN12C renal = tested on: SN12C renal
# PC-3 prostate = tested on: PC-3 prostate
# KM12 colon = tested on: KM12 colon
# HCC-2998 colon = tested on: HCC-2998 colon
# RXF 393 renal = tested on: RXF 393 renal
# IGROV1 ovarian = tested on: IGROV1 ovarian
# UACC-62 melanoma = tested on: UACC-62 melanoma
# SK-OV-3 ovarian = tested on: SK-OV-3 ovarian
# LOX IMVI melanoma = tested on: LOX IMVI melanoma
# OVCAR-8 ovarian = tested on: OVCAR-8 ovarian
# CCRF-CEM leukemia = tested on: CCRF-CEM leukemia
# NCI-H522 lung = tested on: NCI-H522 lung
# TK-10 renal = tested on: TK-10 renal
# SW-620 colon = tested on: SW-620 colon
# NCI/ADR-RES ovarian = tested on: NCI/ADR-RES ovarian
# SK-MEL-28 melanoma = tested on: SK-MEL-28 melanoma
# HCT-116 colon = tested on: HCT-116 colon
# HL-60(TB) leukemia = tested on: HL-60(TB) leukemia
# HOP-62 NSCLC = tested on: HOP-62 NSCLC
# K-562 leukemia = tested on: K-562 leukemia
# OVCAR-4 ovarian = tested on: OVCAR-4 ovarian
# NCI-H460 lung = tested on: NCI-H460 lung
# SNB-19 CNS = tested on: SNB-19 CNS
# MCF7 breast = tested on: MCF7 breast
# DU-145 prostate = tested on: DU-145 prostate
# 786-0 renal = tested on: 786-0 renal
# COLO 205 colon = tested on: COLO 205 colon
# HCT-15 colon = tested on: HCT-15 colon
# ACHN renal = tested on: ACHN renal
# SF-268 CNS = tested on: SF-268 CNS
# T-47D breast = tested on: T-47D breast
# A498 renal = tested on: A498 renal
# RPMI-8226 leukemia = tested on: RPMI-8226 leukemia
# BT-549 breast = tested on: BT-549 breast
# MALME-3M melanoma = tested on: MALME-3M melanoma
# MOLT-4 leukemia = tested on: MOLT-4 leukemia
# U251 CNS = tested on: U251 CNS
# SF-539 CNS = tested on: SF-539 CNS
# NCI-H226 lung = tested on: NCI-H226 lung
# UO-31 renal = tested on: UO-31 renal
# SK-MEL-2 melanoma = tested on: SK-MEL-2 melanoma
# HT29 colon = tested on: HT29 colon
# OVCAR-3 ovarian = tested on: OVCAR-3 ovarian
# A549 NSCLC = tested on: A549 NSCLC
# NCI-H23 lung = tested on: NCI-H23 lung
# HOP-92 NSCLC = tested on: HOP-92 NSCLC
# SK-MEL-5 melanoma = tested on: SK-MEL-5 melanoma
smiles,measurement,setting,value
Cc1cc(=O)n2nnc3c4ccccc4ccc3n12,GI50,SR leukemia,2.28 µM
same,TGI,SR leukemia,13.7 µM
same,GI50,OVCAR-5 ovarian,1.84 µM
same,TGI,OVCAR-5 ovarian,14.7 µM
same,GI50,MDA-MB-435,14.3 µM
same,TGI,MDA-MB-435,29.9 µM
same,GI50,UACC-257 melanoma,13 µM
same,TGI,UACC-257 melanoma,25.7 µM
same,GI50,CAKI-1 renal,1.64 µM
same,TGI,CAKI-1 renal,3.33 µM
same,GI50,M14 melanoma,13.5 µM
same,TGI,M14 melanoma,27.1 µM
same,GI50,SF-295 CNS,14.8 µM
same,TGI,SF-295 CNS,30.2 µM
same,GI50,HS 578T breast,15.2 µM
same,TGI,HS 578T breast,49 µM
same,GI50,SNB-75 CNS,14.9 µM
same,TGI,SNB-75 CNS,29.9 µM
same,GI50,MDA-MB-231 breast,11.4 µM
same,TGI,MDA-MB-231 breast,23.7 µM
same,GI50,SN12C renal,7.34 µM
same,TGI,SN12C renal,21.5 µM
same,GI50,PC-3 prostate,4.22 µM
same,TGI,PC-3 prostate,17.7 µM
same,GI50,KM12 colon,10.6 µM
same,TGI,KM12 colon,22.6 µM
same,GI50,HCC-2998 colon,16.5 µM
same,TGI,HCC-2998 colon,30.9 µM
same,GI50,RXF 393 renal,10.8 µM
same,TGI,RXF 393 renal,22.8 µM
same,GI50,IGROV1 ovarian,1.96 µM
same,TGI,IGROV1 ovarian,4.52 µM
same,GI50,UACC-62 melanoma,5.3 µM
same,TGI,UACC-62 melanoma,18.6 µM
same,GI50,SK-OV-3 ovarian,2.72 µM
same,TGI,SK-OV-3 ovarian,20.3 µM
same,GI50,LOX IMVI melanoma,4.42 µM
same,TGI,LOX IMVI melanoma,16.2 µM
same,GI50,OVCAR-8 ovarian,2.03 µM
same,TGI,OVCAR-8 ovarian,6.97 µM
same,GI50,CCRF-CEM leukemia,1.06 µM
same,TGI,CCRF-CEM leukemia,3.91 µM
same,GI50,NCI-H522 lung,1.54 µM
same,TGI,NCI-H522 lung,2.93 µM
same,GI50,TK-10 renal,1.68 µM
same,TGI,TK-10 renal,3.2 µM
same,GI50,SW-620 colon,1.63 µM
same,TGI,SW-620 colon,3.11 µM
same,GI50,NCI/ADR-RES ovarian,3.87 µM
same,TGI,NCI/ADR-RES ovarian,43.9 µM
same,GI50,SK-MEL-28 melanoma,13.9 µM
same,TGI,SK-MEL-28 melanoma,27.1 µM
same,GI50,HCT-116 colon,1.85 µM
same,TGI,HCT-116 colon,3.46 µM
same,GI50,HL-60(TB) leukemia,11.5 µM
same,TGI,HL-60(TB) leukemia,37.2 µM
same,GI50,HOP-62 NSCLC,6.11 µM
same,TGI,HOP-62 NSCLC,20.9 µM
same,GI50,K-562 leukemia,1.8 µM
same,TGI,K-562 leukemia,7.85 µM
same,GI50,OVCAR-4 ovarian,1.5 µM
same,TGI,OVCAR-4 ovarian,3.27 µM
same,GI50,NCI-H460 lung,13.9 µM
same,TGI,NCI-H460 lung,30.4 µM
same,GI50,SNB-19 CNS,12.8 µM
same,TGI,SNB-19 CNS,25.4 µM
same,GI50,MCF7 breast,2.86 µM
same,TGI,MCF7 breast,10.5 µM
same,GI50,DU-145 prostate,11.3 µM
same,TGI,DU-145 prostate,23.4 µM
same,GI50,786-0 renal,8.25 µM
same,TGI,786-0 renal,20.6 µM
same,GI50,COLO 205 colon,2.97 µM
same,TGI,COLO 205 colon,8.77 µM
same,GI50,HCT-15 colon,2.86 µM
same,TGI,HCT-15 colon,10.4 µM
same,GI50,ACHN renal,1.58 µM
same,TGI,ACHN renal,2.97 µM
same,GI50,SF-268 CNS,11 µM
same,TGI,SF-268 CNS,23.1 µM
same,GI50,T-47D breast,1.38 µM
same,TGI,T-47D breast,3.14 µM
same,GI50,A498 renal,11.2 µM
same,TGI,A498 renal,23.2 µM
same,GI50,RPMI-8226 leukemia,0.959 µM
same,TGI,RPMI-8226 leukemia,4.03 µM
same,GI50,BT-549 breast,7.76 µM
same,TGI,BT-549 breast,21.1 µM
same,GI50,MALME-3M melanoma,2.08 µM
same,TGI,MALME-3M melanoma,8.19 µM
same,GI50,MOLT-4 leukemia,3.39 µM
same,TGI,MOLT-4 leukemia,19.5 µM
same,GI50,U251 CNS,14.9 µM
same,TGI,U251 CNS,28.1 µM
same,GI50,SF-539 CNS,3.5 µM
same,TGI,SF-539 CNS,16.7 µM
same,GI50,NCI-H226 lung,7.64 µM
same,TGI,NCI-H226 lung,27.1 µM
same,GI50,UO-31 renal,1.2 µM
same,TGI,UO-31 renal,2.72 µM
same,GI50,SK-MEL-2 melanoma,16.5 µM
same,TGI,SK-MEL-2 melanoma,30.6 µM
same,GI50,HT29 colon,2.36 µM
same,TGI,HT29 colon,5.57 µM
same,GI50,OVCAR-3 ovarian,1.79 µM
same,TGI,OVCAR-3 ovarian,3.37 µM
same,GI50,A549 NSCLC,10.8 µM
same,TGI,A549 NSCLC,23.8 µM
same,GI50,NCI-H23 lung,12.4 µM
same,TGI,NCI-H23 lung,27.9 µM
same,GI50,HOP-92 NSCLC,0.942 µM
same,TGI,HOP-92 NSCLC,15 µM
same,GI50,SK-MEL-5 melanoma,12.8 µM
same,TGI,SK-MEL-5 melanoma,25.7 µM
